Laboratory results taken from patent US8242109B2, “Compositions and methods relating to novel compounds and targets thereof” (priority 2007, dated 2012).
Like-named read-outs stand apart in the source and are kept apart here.

What was measured:
[1] = biological target: T1, F1F0-ATPase (Bos taurus, UniProt P13621); assay: Inhibition of ATP synthesis and hydrolysis by the F1F0-ATPase; assay type: biochemical
T1 construct: from tissue; host or cells: bovine sub-mitochondrial particles (SMPs)
Protocol: (§1) The compounds listed in Table 4 were tested for activity against F1F0-ATPase and cytotoxicity in Ramos cells. Inhibition of ATP synthesis and hydrolysis by the F1F0-ATPase was measured as described in K. M. Johnson et al., Chemistry & Biology 2005, 12, 485-496. Cytotoxicity in Ramos cells was measured as described in K. M. Johnson et al., Chemistry & Biology 2005, 12, 485-496, or using the alamarBlue™ Assay with fluorescence detection (U.S. Pat. No. 5,501,959) as supplied and described by Invitrogen (Carlsbad, Calif.).

[2] = tested on: Ramos cells; assay: Cytotoxicity in Ramos cells; assay type: cell-based; conditions: Homo sapiens, read-out: Ramos Cell EC50
Protocol: as §1

| Compound | IC50 ([1]; read-out: ATPase IC50) [µM] | EC50 ([2]; cytotoxicity in Ramos cells) [µM] | IC50 [1] [µM] | EC50 ([2]; Ramos) [µM] |
| --- | --- | --- | --- | --- |
| CC(C)NC(=O)Nc1ccc(C2=NC(Cc3ccccc3Br)C(=O)Nc3ccc(Cl)cc32)cc1 (stereo not drawn) [Compound 1, (Z)-1-(4-(3-(2-bromobenzyl)-7-chloro-2-oxo-2,3-dihydro-1H-benzo[e][1,4]diazepin-5-yl)phenyl)-3-isopropylurea] | 5 to 10 | < 5 | – | – |
| CC(C)NC(=O)Nc1ccc(C2=NC(Cc3ccccc3C(F)(F)F)C(=O)Nc3ccc(Cl)cc32)cc1 (stereo not drawn) [Compound 2, (Z)-1-(4-(7-chloro-2-oxo-3-(2-(trifluoromethyl)benzyl)-2,3-dihydro-1H-benzo[e][1,4]diazepin-5-yl)phenyl)-3-isopropylurea] | 5 to 10 | < 5 | – | – |
| CC(C)NC(=O)Nc1ccc(C2=NC(Cc3ccccc3F)C(=O)Nc3ccc(Cl)cc32)cc1 (stereo not drawn) [Compound 3, (Z)-1-(4-(7-chloro-3-(2-fluorobenzyl)-2-oxo-2,3-dihydro-1H-benzo[e][1,4]diazepin-5-yl)phenyl)-3-isopropylurea] | 5 to 10 | 5 to 10 | – | – |
| CC(C)NC(=O)Nc1ccc(C2=NC(Cc3ccccc3Cl)C(=O)Nc3ccc(Cl)cc32)cc1 (stereo not drawn) [Compound 4, (Z)-1-(4-(7-chloro-3-(2-chlorobenzyl)-2-oxo-2,3-dihydro-1H-benzo[e][1,4]diazepin-5-yl)phenyl)-3-isopropylurea] | 5 to 10 | < 5 | – | – |
| CNC(=O)Nc1ccc(C2=NC(Cc3ccccc3Cl)C(=O)Nc3ccc(Cl)cc32)cc1 (stereo not drawn) [Compound 5, (Z)-1-(4-(7-chloro-3-(2-chlorobenzyl)-2-oxo-2,3-dihydro-1H-benzo[e][1,4]diazepin-5-yl)phenyl)-3-methylurea] | – | 5 to 10 | 5 to 10 | – |
| CN(C)CCNC(=O)Nc1ccc(C2=NC(Cc3ccccc3Cl)C(=O)Nc3ccc(Cl)cc32)cc1 (stereo not drawn) [Compound 6, (Z)-1-(4-(7-chloro-3-(2-chlorobenzyl)-2-oxo-2,3-dihydro-1H-benzo[e][1,4]diazepin-5-yl)phenyl)-3-(2-(dimethylamino)ethyl)urea] | > 10 | < 5 | – | – |
| O=C(NCC(F)(F)F)Nc1ccc(C2=NC(Cc3ccccc3Cl)C(=O)Nc3ccc(Cl)cc32)cc1 (stereo not drawn) [Compound 7, (Z)-1-(4-(7-chloro-3-(2-chlorobenzyl)-2-oxo-2,3-dihydro-1H-benzo[e][1,4]diazepin-5-yl)phenyl)-3-(2,2,2-trifluoroethyl)urea] | < 5 | < 5 | – | – |
| O=C(Nc1ccc(C2=NC(Cc3ccccc3Cl)C(=O)Nc3ccc(Cl)cc32)cc1)NC1CC1 (stereo not drawn) [Compound 8, (Z)-1-(4-(7-chloro-3-(2-chlorobenzyl)-2-oxo-2,3-dihydro-1H-benzo[e][1,4]diazepin-5-yl)phenyl)-3-cyclopropylurea] | 5 to 10 | < 5 | – | – |
| COCCNC(=O)Nc1ccc(C2=NC(Cc3ccccc3Cl)C(=O)Nc3ccc(Cl)cc32)cc1 (stereo not drawn) [Compound 9, (Z)-1-(4-(7-chloro-3-(2-chlorobenzyl)-2-oxo-2,3-dihydro-1H-benzo[e][1,4]diazepin-5-yl)phenyl)-3-(2-methoxyethyl)urea] | 5 to 10 | < 5 | – | – |
| CCOCCNC(=O)Nc1ccc(C2=NC(Cc3ccccc3Cl)C(=O)Nc3ccc(Cl)cc32)cc1 (stereo not drawn) [Compound 10, (Z)-1-(4-(7-chloro-3-(2-chlorobenzyl)-2-oxo-2,3-dihydro-1H-benzo[e][1,4]diazepin-5-yl)phenyl)-3-(2-ethoxyethyl)urea] | 5 to 10 | < 5 | – | – |
| CNC(=O)Nc1ccc(C2=NC(Cc3ccccc3Br)C(=O)Nc3ccc(Cl)cc32)cc1 (stereo not drawn) [Compound 11, (Z)-1-(4-(3-(2-bromobenzyl)-7-chloro-2-oxo-2,3-dihydro-1H-benzo[e][1,4]diazepin-5-yl)phenyl)-3-methylurea] | – | < 5 | 5 to 10 | – |
| CN(C)CCNC(=O)Nc1ccc(C2=NC(Cc3ccccc3Br)C(=O)Nc3ccc(Cl)cc32)cc1 (stereo not drawn) [Compound 12, (Z)-1-(4-(3-(2-bromobenzyl)-7-chloro-2-oxo-2,3-dihydro-1H-benzo[e][1,4]diazepin-5-yl)phenyl)-3-(2-(dimethylamino)ethyl)urea] | 5 to 10 | < 5 | – | – |
| O=C(NCC(F)(F)F)Nc1ccc(C2=NC(Cc3ccccc3Br)C(=O)Nc3ccc(Cl)cc32)cc1 (stereo not drawn) [Compound 13, (Z)-1-(4-(3-(2-bromobenzyl)-7-chloro-2-oxo-2,3-dihydro-1H-benzo[e][1,4]diazepin-5-yl)phenyl)-3-(2,2,2-trifluoroethyl)urea] | < 5 | < 5 | – | – |
| O=C(Nc1ccc(C2=NC(Cc3ccccc3Br)C(=O)Nc3ccc(Cl)cc32)cc1)NC1CC1 (stereo not drawn) [Compound 14, (Z)-1-(4-(3-(2-bromobenzyl)-7-chloro-2-oxo-2,3-dihydro-1H-benzo[e][1,4]diazepin-5-yl)phenyl)-3-cyclopropylurea] | 5 to 10 | < 5 | – | – |
| COCCNC(=O)Nc1ccc(C2=NC(Cc3ccccc3Br)C(=O)Nc3ccc(Cl)cc32)cc1 (stereo not drawn) [Compound 15, (Z)-1-(4-(3-(2-bromobenzyl)-7-chloro-2-oxo-2,3-dihydro-1H-benzo[e][1,4]diazepin-5-yl)phenyl)-3-(2-methoxyethyl)urea] | 5 to 10 | < 5 | – | – |
| CCOCCNC(=O)Nc1ccc(C2=NC(Cc3ccccc3Br)C(=O)Nc3ccc(Cl)cc32)cc1 (stereo not drawn) [Compound 16, (Z)-1-(4-(3-(2-bromobenzyl)-7-chloro-2-oxo-2,3-dihydro-1H-benzo[e][1,4]diazepin-5-yl)phenyl)-3-(2-ethoxyethyl)urea] | 5 to 10 | < 5 | – | – |
| Cc1ccccc1CC1N=C(c2ccc(O)cc2)c2cc(Cl)ccc2NC1=O (stereo not drawn) [Compound 17, (Z)-7-chloro-5-(4-hydroxyphenyl)-3-(2-methylbenzyl)-1H-benzo[e][1,4]diazepin-2(3H)-one] | – | – | 5 to 10 | 5 to 10 |
| Cc1ccccc1CC1N=C(c2ccc(O)cc2)c2cc(Cl)ccc2N(C)C1=O (stereo not drawn) [Compound 18, (Z)-7-chloro-5-(4-hydroxyphenyl)-1-methyl-3-(2-methylbenzyl)-1H-benzo[e][1,4]diazepin-2(3H)-one] | – | > 10 | > 10 | – |
| Cc1cccc(CC2N=C(c3ccc(O)cc3)c3cc(Cl)ccc3NC2=O)c1 (stereo not drawn) [Compound 19, (Z)-7-chloro-5-(4-hydroxyphenyl)-3-(3-methylbenzyl)-1H-benzo[e][1,4]diazepin-2(3H)-one] | – | – | 5 to 10 | 5 to 10 |
| Cc1cccc(CC2N=C(c3ccc(O)cc3)c3cc(Cl)ccc3N(C)C2=O)c1 (stereo not drawn) [Compound 20, (Z)-7-chloro-5-(4-hydroxyphenyl)-1-methyl-3-(3-methylbenzyl)-1H-benzo[e][1,4]diazepin-2(3H)-one] | – | > 10 | > 10 | – |
| Cc1ccc(CC2N=C(c3ccc(O)cc3)c3cc(Cl)ccc3NC2=O)cc1 (stereo not drawn) [Compound 21, (Z)-7-chloro-5-(4-hydroxyphenyl)-3-(4-methylbenzyl)-1H-benzo[e][1,4]diazepin-2(3H)-one] | – | – | 5 to 10 | 5 to 10 |
| Cc1ccc(CC2N=C(c3ccc(O)cc3)c3cc(Cl)ccc3N(C)C2=O)cc1 (stereo not drawn) [Compound 22, (Z)-7-chloro-5-(4-hydroxyphenyl)-1-methyl-3-(4-methylbenzyl)-1H-benzo[e][1,4]diazepin-2(3H)-one] | – | > 10 | > 10 | – |
| CN1C(=O)C(Cc2ccccc2Br)N=C(c2ccc3[nH]c(=O)[nH]c3c2)c2cc(Cl)ccc21 (stereo not drawn) [Compound 35, (Z)-3-(2-bromobenzyl)-7-chloro-1-methyl-5-(2-oxo-2,3-dihydro-1H-benzo[d]imidazol-5-yl)-1H-benzo[e][1,4]diazepin-2(3H)-one] | – | – | – | 5 to 10 |
